This passage reports mortality results from patent US10882869B2, “Condensed heterocyclic compounds and pesticides” (NISSAN CHEMICAL CORPORATION, priority 2015, dated 2021).

The term mortality denotes the share of the test organisms that died.

What all share (format): in vivo
The test system of experiment [1] is Spodoptera litura. Kind of experiment: Insecticidal test on Spodoptera litura (cabbage leaves soaked). The note with it: 144 h, 500 ppm solution, 3rd-instar larvae, 6 days after, 25° C. As to the method:
Leaves of cabbage were soaked in the solutions for about 10 seconds. After the soaking, the leaves were dried in air and placed in dishes. In each dish, five 3rd-instar larvae of Spodoptera litura were released, and the dishes were covered with lids and placed in an incubator at 25° C. 6 Days after, dead insects in the dishes were counted, and the mortality was calculated by using the same equation as in Test Example 1. The test was carried out in duplicate.

For experiment [2], the system named is Plutella xylostella. Kind of experiment: Insecticidal test on Plutella xylostella (cabbage leaves soaked). The note with it: 144 h, 500 ppm solution, 3rd-instar larvae, 6 days after, 25° C. As to the method:
Leaves of cabbage were soaked in the solutions for about 10 seconds. After the soaking, the leaves were dried in air and placed in dishes. In each dish, five 3rd-instar larvae of Plutella xylostella were released, and the dishes were covered with lids and placed in an incubator at 25° C. 6 Days after, dead insects in the dishes were counted, and the mortality was calculated by using the same equation as in Test Example 1. The test was carried out in duplicate.

The test system of experiment [3] is Ctenocephalides felis. Kind of experiment: Test on the effect on Ctenocephalides felis (thin film in glass container). The following applies: 96 h, application dose 10 μg/cm^2, adults, 4 days after release, 25° C. As to the method:
350 μl of the solutions were applied to the bottoms and the side walls of glass containers with an inner wall surface area of 35 cm^2, and acetone was volatilized to prepare thin films of the compounds on the inner walls of the glass containers. Since the inner wall surface area of each glass container was 35 cm^2, the application dose was 10 μg/cm^2.
To each glass container, five adults (male and female) of Ctenocephalides felis were released, and the containers were covered with lids and placed in an incubator at 25° C. 4 Days after the release of the fleas, dead fleas were counted, and the mortality was calculated by using the same equation as in Test Example 1.

Experiment [4] concerns Myzus persicae. As to the kind of experiment: Insecticidal test on Myzus persicae (cabbage leaf spray). The following applies: 144 h, 500 ppm solution sprayed (2.5 mg/cm^2), apterous adults on cabbage leaves, 6 days after, 25° C. As to the method: Wet absorbent cotton was laid on glass dishes having an inner diameter of 3 cm, and covered with leaves of cabbage cut into circles of the same diameter, and 4 apterous adults of Myzus persicae were released. […] The solutions were sprayed from a rotary spray tower (2.5 mg/cm^2), and the dishes were covered with lids and placed in an incubator at 25° C. 6 Days after, dead insects were counted, and the mortality was calculated by using the same equation as in Test Example 1. The test was carried out in duplicate.

For experiment [5], the system named is Nilaparvata lugens. Kind of experiment: Insecticidal test on Nilaparvata lugens (rice sheaths soaked). The following applies: 144 h, 500 ppm solution, 3rd-instar larvae, 6 days after, 25° C. As to the method: Rice sheaths were soaked in the solutions for about 10 seconds. After the soaking, the rice sheaths were dried in air and put in test tubes. In each tube, five 3rd-instar larvae of Nilaparvata lugens were released, and the tubes were capped with sponge and placed in an incubator at 25° C. 6 Days after, dead insects in the test tubes were counted, and the mortality (%) (the number of dead insects÷the number of released insects×100) was calculated. The test was carried out in duplicate.

Consider `CCSc1c(-c2nc3ccc(C(F)(F)F)nc3n2C)nc2cc(C(F)(F)F)ccn12` [1-1-030b, 2-[3-(ethylthio)-7-(trifluoromethyl)imidazo[1,2-a]pyridin-2-yl]-3-methyl-5-(trifluoromethyl)-3H-imidazo[4,5-b]pyridine], for which the mortality at 500 ppm in experiment [1] and in experiment [2] was not below 90% throughout.
`CCSc1c(-c2nc3cc(C(F)(F)F)cnc3n2C)nc2cc(C(F)(F)F)c(Br)cn12` [1-1-023b, 2-[6-bromo-3-(ethylthio)-7-(trifluoromethyl)imidazo[1,2-a]pyridin-2-yl]-3-methyl-6-(trifluoromethyl)-3H-imidazo[4,5-b]pyridine] displayed a mortality at 10 µg/cm2 in experiment [3] not below 50%. Also, the mortality at 500 ppm in experiment [1] and in experiment [2] was not below 90% throughout.
As to `CCSc1c(-n2cc3ncc(C(F)(F)F)cc3n2)nc2cc(C(F)(F)F)ccn12` [1-10-002b, 2-[3-(ethylthio)-7-(trifluoromethyl)imidazo[1,2-a]pyridin-2-yl]-6-(trifluoromethyl)-2H-pyrazolo[4,3-b]pyridine], the mortality at 500 ppm in experiment [4], in experiment [1] and in experiment [2] was not below 90% each time. This molecule returned a mortality at 10 µg/cm2 in experiment [3] not below 50%.
Regarding `CCS(=O)(=O)c1c(-c2nc3cc(C(F)(F)F)cnc3n2C)nc2ncc(C(F)(F)F)cn12` [1-1-054a, 2-[3-(ethylsulfonyl)-6-(trifluoromethyl)imidazo[1,2-a]pyrimidin-2-yl]-3-methyl-6-(trifluoromethyl)-3H-imidazo[4,5-b]pyridine], the mortality at 500 ppm in experiment [2] was not below 90%.
`CCS(=O)(=O)c1c(-c2nc3cc(C(F)(F)F)cnc3n2C)nc2sc(C(F)(F)F)cn12` [2-1-001a, 5-(ethylsulfonyl)-6-[3-methyl-6-(trifluoromethyl)-3H-imidazo[4,5-b]pyridin-2-yl]-2-(trifluoromethyl)imidazo[2,1-b]thiazole]: the mortality at 500 ppm in experiment [4], in experiment [5], in experiment [1] and in experiment [2] was not below 90% in each case. In experiment [3], the mortality at 10 µg/cm2 is not below 50%.
Turning to `CCSc1c(-c2nc3cc(C(F)(F)F)cnc3n2C)nc2sc(C(F)(F)F)cn12` [2-1-001b, 5-(ethylthio)-6-[3-methyl-6-(trifluoromethyl)-3H-imidazo[4,5-b]pyridin-2-yl]-2-(trifluoromethyl)imidazo[2,1-b]thiazole], the mortality at 500 ppm in experiment [1] and in experiment [2] was not below 90% throughout.
For `CCS(=O)(=O)c1c(-c2nc3cc(C(F)(F)F)cnc3n2C)nc2cc(C(F)(F)F)c(Br)cn12` [1-1-023a, 2-[6-bromo-3-(ethylsulfonyl)-7-(trifluoromethyl)imidazo[1,2-a]pyridin-2-yl]-3-methyl-6-(trifluoromethyl)-3H-imidazo[4,5-b]pyridine], the mortality at 500 ppm in experiment [4], in experiment [5], in experiment [1] and in experiment [2] was not below 90% each time. This molecule also gave a mortality at 10 µg/cm2 in experiment [3] not below 50%.
In the case of `CCS(=O)(=O)c1c(-c2cn3cc(C(F)(F)F)sc3n2)nc2ccc(C(F)(F)F)cn12` [1-12-001a, 6-[3-(ethylsulfonyl)-6-(trifluoromethyl)imidazo[1,2-a]pyridin-2-yl]-2-(trifluoromethyl)imidazo[2,1-b]thiazole], the mortality at 500 ppm in experiment [4], in experiment [1] and in experiment [2] was not below 90% in each case. The same molecule gave a mortality at 10 µg/cm2 in experiment [3] not below 50%.
Take `CCSc1c(-c2nc3cc(C(F)(F)F)nc(C)c3n2C)nc2ccc(C(F)(F)F)cn12` [1-8-003b, 2-[3-(ethylthio)-6-(trifluoromethyl)imidazo[1,2-a]pyridin-2-yl]-3,4-dimethyl-6-(trifluoromethyl)-3H-imidazo[4,5-c]pyridine]: the mortality at 500 ppm in experiment [1] and in experiment [2] was not below 90% each time.
Take `CCS(=O)(=O)c1c(-c2cn3ccc(C(F)(F)F)cc3n2)nc2ccc(C(F)(F)F)cn12` [1-5-002a, 3-(ethylsulfonyl)-6,7′-bis(trifluoromethyl)-2,2′-biimidazo[1,2-a]pyridine]: the mortality at 500 ppm in experiment [4], in experiment [5], in experiment [1] and in experiment [2] was not below 90% throughout. The same molecule yielded a mortality at 10 µg/cm2 in experiment [3] not below 50%.
Take `CCSc1c(-c2nc3cc(C(F)(F)F)cnc3n2C)nc2c(C(F)(F)F)cc(I)cn12` [1-1-066b, 2-[3-(ethylthio)-6-iodo-8-(trifluoromethyl)imidazo[1,2-a]pyridin-2-yl]-3-methyl-6-(trifluoromethyl)-3H-imidazo[4,5-b]pyridine]: the mortality at 10 µg/cm2 in experiment [3] is not below 50%.
Consider `CCS(=O)(=O)c1c(-c2nc3cc(C(F)(F)C(F)(F)F)ncn3c2Br)nc2ccc(C(F)(F)F)cn12` [1-3-010a, 3-bromo-2-[3-(ethylsulfonyl)-6-(trifluoromethyl)imidazo[1,2-a]pyridin-2-yl]-7-(perfluoroethyl)imidazo[1,2-c]pyrimidine], for which the mortality at 500 ppm in experiment [4] and in experiment [1] was not below 90% in each case. Further, the mortality at 10 µg/cm2 in experiment [3] is not below 50%.
For the molecule `CCS(=O)(=O)c1c(-c2nc3cc(C(F)(F)F)cnc3s2)nc2cc(C(F)(F)F)ccn12` [1-13-001a, 2-[3-(ethylsulfonyl)-7-(trifluoromethyl)imidazo[1,2-a]pyridin-2-yl]-6-(trifluoromethyl)thiazolo[5,4-b]pyridine], the mortality at 500 ppm in experiment [1] and in experiment [2] was not below 90% each time.
On to `CCS(=O)(=O)c1c(-c2nc3cc(S(=O)(=O)C(F)(F)F)ccc3o2)nc2ccc(C(F)(F)F)cn12` [1-2-001a, 2-[3-(ethylsulfonyl)-6-(trifluoromethyl)imidazo[1,2-a]pyridin-2-yl]-5-[(trifluoromethyl)sulfonyl]benz[d]oxazole], for which the mortality at 500 ppm in experiment [4], in experiment [5], in experiment [1] and in experiment [2] was not below 90% in each case. In experiment [3], this molecule had a mortality at 10 µg/cm2 not below 50%.
For `CCS(=O)(=O)c1c(-c2nc3cc(SC(F)(F)F)cnc3n2C)nc2cc(C(F)(F)F)ccn12` [1-1-027a, 2-[3-(ethylsulfonyl)-7-(trifluoromethyl)imidazo[1,2-a]pyridin-2-yl]-3-methyl-6-((trifluoromethyl)thio)-3H-imidazo[4,5-b]pyridine], the mortality at 500 ppm in experiment [4], in experiment [1] and in experiment [2] was not below 90% in each case. In addition, the mortality at 10 µg/cm2 in experiment [3] is not below 50%.
As for `CCS(=O)(=O)c1c(-c2cn3cc(C(F)(F)F)ncc3n2)nc2ccc(C(F)(F)F)cn12` [1-6-002a, 2-[3-(ethylsulfonyl)-6-(trifluoromethyl)imidazo[1,2-a]pyridin-2-yl]-6-(trifluoromethyl)imidazo[1,2-a]pyrazine], the mortality at 500 ppm in experiment [4], in experiment [1] and in experiment [2] was not below 90% in each case.
In experiment [1], `CCSc1c(-c2nc3cc(C(F)(F)F)ncc3n2C)nc2cc(C(F)(F)F)ccn12` [1-8-005b, 2-[3-(ethylthio)-7-(trifluoromethyl)imidazo[1,2-a]pyridin-2-yl]-3-methyl-6-(trifluoromethyl)-3H-imidazo[4,5-c]pyridine] returned a mortality at 500 ppm not below 90%.
In turn, `CCSc1c(-c2nc3cnc(C(F)(F)F)cc3n2C)nc2cc(Cl)ccn12` [1-9-003b, 2-[7-chloro-3-(ethylthio)imidazo[1,2-a]pyridin-2-yl]-1-methyl-6-(trifluoromethyl)-1H-imidazo[4,5-c]pyridine] showed a mortality at 10 µg/cm2 in experiment [3] not below 50%. Also, the mortality at 500 ppm in experiment [2] was not below 90%.
With `CCSc1c(-n2cc3cnc(C(F)(F)F)cc3n2)nc2cc(C(F)(F)F)ccn12` [1-11-001b, 2-[3-(ethylthio)-7-(trifluoromethyl)imidazo[1,2-a]pyridin-2-yl]-6-(trifluoromethyl)-2H-pyrazolo[4,3-c]pyridine], the mortality at 500 ppm in experiment [4], in experiment [5], in experiment [1] and in experiment [2] was not below 90% each time. The molecule further registered a mortality at 10 µg/cm2 in experiment [3] not below 50%.
For `CCS(=O)(=O)c1c(-c2cn3cnc(C(F)(F)C(F)(F)F)cc3n2)nc2ccc(C(F)(F)F)cn12` [1-3-008a, 2-[3-(ethylsulfonyl)-6-(trifluoromethyl)imidazo[1,2-a]pyridin-2-yl]-7-(perfluoroethyl)imidazo[1,2-c]pyrimidine], the mortality at 10 µg/cm2 in experiment [3] was not below 50%. Also, the mortality at 500 ppm in experiment [1] and in experiment [2] was not below 90% each time.
